Test results from patent publication US6060481A, “Method for improving insulin sensitivity using an adenosine receptor antagonist” (priority 1999, dated 2000).

Tests used:
[1] = test system: protein tyrosine phosphatase; assay: Protein tyrosine phosphatase assay of gastrocnemius fractions and insulin receptor preparations of treated rats; type: in vivo, Zucker rats
Protocol: Approximately 100 mg frozen tissue were homogenized in 5 ml buffer containing 10 mM NaHCO3, (pH 7.4), 250 mM sucrose, 0.1 mg/ml aprotinin, 0.05 mg/ml leupeptin, 1 mM phenylmethysulfonyl fluoride (PMSF), and 5 mM NaN3 (CHB buffer) and then sonicated for 1 min on ice with three 20-sec bursts. The sonicate was centrifuged at 1,200 g for 10 min at 4° C. Three ml of CHB medium was added to the pellet which was then rehomogenized for 1 min and respun. The suspensions of the two pellets were combined, rehomogenized, and respun at 10,000 g for 10 minutes at 4° C. The 10,000 g pellet was discarded and the supernatant was transferred to a cold Ti75 ultracentrifuge tube and spun at 270,000 g for 90 minutes. The supernatant of the high speed centrifugation (cytosol) was used for PTPase assays. The 270,000 g pellet was resuspended in 0.500 ml buffer containing 250 mM sucrose, 20 mM HEPES (pH 7.4), 0.6 M KC1, and 1% Triton X-100. A 27 gauge syringe needle was used to completely solubilize the pellet. The supernatant was spun at 12,000 rpm for 20 min and the resulting supernatant, termed particulate fraction was then dialyzed overnight at 4° C. against 20 mM HEPES (pH 7.2) and 0.1% β-mercaptoethanol. Samples were stored at -70° C. until used for PTPase assays.
Each tube contained 10 μl [^32 P]tyrosine-phosphorylated myelin basic protein (1×10^4 dpm; 2×10^3 dpm/pmol), 10 μl 5X PTP-ase buffer [250 mM HEPES (pH 7.0), 10 mM EDTA, 5 mM DTT], and 1-5 μg muscle fraction protein and water in a total volume of 40 μl. Consumption of substrate (phosphorylated myelin basic protein) was limited to 20%.
One unit of PTPase activity is defined as the amount of enzyme releasing 1 nmol phosphate/min from myelin basic protein.
PTPase was measured in skeletal muscle cytosolic fractions, particulate fractions, and in partially purified insulin receptors. To assay PTPase activity in partially purified insulin receptors the WGA eluates were dialyzed overnight against 0.1% β-mercaptoethanol and 20 mM HEPES, pH 7.2, to eliminate phosphatase inhibitors.

[2] = test system: glucose uptake by individual tissues; assay: In vivo tissue glucose uptake with 14C 2-deoxyglucose during clamp; set-up: species or system Zucker rats; settings: for Decrease in glucose uptake by adipose tissue: epididymal fat, normalized to wet weight
Protocol: In vivo glucose uptake by individual tissues was determined using [^14 C]-labeled 2-deoxyglucose (2-DG), as described previously in, for example, the Lang references cited above. Tissue-specific glucose uptake was determined between 140 and 180 min after the start of the euglycemic hyperinsulinemic clamp. A tracer amount of 2-DG (8 μCi/rat; Amersham, Arlington Heights, Ill.) was injected intravenously, and tissues obtained 40 min later. Prior to tissue collection, serial arterial blood samples (0.2 ml) were withdrawn into heparinized syringes, plasma deproteinized with perchloric acid and ^14 C-radioactivity determined. Thereafter, animals were anesthetized with sodium pentobarbital, exsanguinated, and selected tissues were excised to determine the intracellular accumulation of phosphorylated 2-DG.
During the hyperinsulinemic clamp, blood glucose concentrations were determined at 10-min intervals using the YSI glucose analyzer (Yellow Springs, Ohio). Glucose specific activity was determined on neutralized supernatants of deproteinized plasma as taught by Lang, Am. J. Physiol, 263 (Endocrinol. Metab. 26): E703-D711 (1992). Tissue samples (600-900 mg wet wt) were immersed in ice-cold 0.5 N PCA, homogenized, and centrifuged. The concentration of phosphorylated 2-DG in tissues was calculated as the difference between total ^14 C-radioactivity of the neutral extract and the ^14 C-radioactivity remaining after Somogyi treatment as described in detail by Lang CH, Dobrescu C, and Meszaros K., Metabolism 39:1096-1107 (1990).
Rates of whole body glucose appearance (Ra) and disappearance (Rd) are calculated using the steady-state equations of Steele, Ann. NY Acad. Sci., 82:420-430 (1959). The glucose metabolic clearance rate (MCR) is calculated by dividing the glucose Rd by the prevailing glucose concentration. Since the prevailing insulin levels during the hyperinsulinemic clamp completely suppress endogenous glucose production, the rate of whole body glucose disposal equals the exogenous glucose infusion rate. The increment in insulin-stimulated glucose uptake (IMGU) for each animals is calculated by subtracting the basal endogenous glucose Ra from the measured rate of glucose disposal determined during the last 40 min of the clamp. In vivo glucose uptake for each tissue examined is calculated based on the accumulation of phosphorylated 2-DG by a respective tissue, the integrated 2-DG:glucose ratio in the plasma during the 40-min labeling period, and the lumped constant as described by Lang, Endocrinology, 128:645-653 (1991).

[3] = Zucker rats; cited from earlier work
[4] = target: T1, human A3 adenosine receptor (Homo sapiens, UniProt P0DMS8); assay: Binding constants against cloned and expressed human adenosine receptor subtypes (A3); settings: read-out: Binding constant (KD) A3
T1 construct: expressed in transfected cells
T1 sequence (P0DMS8 1-318): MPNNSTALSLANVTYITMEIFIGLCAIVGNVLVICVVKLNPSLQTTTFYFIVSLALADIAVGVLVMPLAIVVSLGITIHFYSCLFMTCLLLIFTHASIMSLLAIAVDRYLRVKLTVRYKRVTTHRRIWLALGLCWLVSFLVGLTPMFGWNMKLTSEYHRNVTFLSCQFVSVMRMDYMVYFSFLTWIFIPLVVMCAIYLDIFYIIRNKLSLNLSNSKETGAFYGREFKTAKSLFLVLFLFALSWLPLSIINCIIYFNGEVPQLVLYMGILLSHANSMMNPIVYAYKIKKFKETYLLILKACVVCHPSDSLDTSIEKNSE

rat A3 receptor = target: T2, rat A3 receptor (Rattus norvegicus, UniProt P28647); settings: rat versus human A3; cited from earlier work
T2 sequence (P28647 1-320): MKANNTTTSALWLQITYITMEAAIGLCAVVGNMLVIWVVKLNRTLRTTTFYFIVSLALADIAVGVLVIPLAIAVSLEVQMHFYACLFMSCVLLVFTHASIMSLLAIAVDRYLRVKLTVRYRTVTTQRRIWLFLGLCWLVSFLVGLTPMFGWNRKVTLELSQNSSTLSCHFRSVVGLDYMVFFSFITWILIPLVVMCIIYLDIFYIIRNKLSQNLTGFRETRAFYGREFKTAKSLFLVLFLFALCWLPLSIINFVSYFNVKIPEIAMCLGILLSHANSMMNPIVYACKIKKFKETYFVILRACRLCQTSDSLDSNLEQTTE

[5] = obese rats, one week treatment, clamp

In the case of `CCCn1c(=O)c2[nH]c(-c3ccc(C=CC(=O)O)cc3)nc2n(CCC)c1=O` [BWA1433, 1,3-dipropyl-8-(p-acrylic)phenylxanthine], the “Phosphatase activity in cytosolic fractions of gastrocnemius” value ([1]; between groups (lean, obese, ± treatment)) is reported as “No differences”, the “PTPase activity in particulate fraction of gastrocnemius” value ([1]; obese Zucker rats) is reported as “reduction” and the “Reduction of phosphatase activity in partially-purified insulin receptor preparations compared to untreated controls” value ([1]; obese rats) is reported as 27%. For the same compound, the “Glucose uptake under hyperinsulinemic conditions in heart” value ([2]; lean animals) was “unaffected”, the “Glucose uptake under hyperinsulinemic conditions in liver” value ([2]; lean animals) was “unaffected” and the “Decrease in glucose uptake by gastrocnemius” value ([2]; lean rats) was 16%. For the same compound, the “Decrease in glucose uptake by soleus” value ([2]; lean rats) was 12%, the “Decrease in glucose uptake by adipose tissue” value ([2]; lean rats) was 48% and the “Change in glucose uptake in heart” value ([2]; obese rats) was “no significant change”. For the same compound, the “Change in glucose uptake in liver” value ([2]; obese rats) was “no significant change”, the “Decrease in glucose uptake by adipose tissue” value ([2]; obese rats) was 54% and the “Increase in glucose uptake in gastrocnemius compared to vehicle-treated obese rats” value [2, 5] was 44%. For the same compound, the “Increase in glucose uptake in soleus compared to vehicle-treated obese rats” value [2, 5] was 47%, the “Reduction in glucose uptake by fat” value ([2]; on the basis of intracellular aqueous volume, both groups (lean, obese)) was “approximately 50%” and the Glucose tolerance [3] was “improves glucose tolerance”. For the same compound, the Kd [4] was 30 nM and the “KD of rat A3 receptor relative to human A3 receptor” value (rat A3 receptor) was “much higher”.
